Measurements taken from PubChem BioAssay (NCI).
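Interpolation was linear, between the two tested concentrations surrounding the appropriate level; five concentrations were tested over 48 hours in 96-well plates. GI50: concentration for 50% inhibition of growth. TGI is the concentration that stops growth completely.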

Legend:
Assay in all cases: inhibition of tumour cell growth, NCI panel, 48 h
[1] = tested on: T-47D breast
[2] = tested on: BT-549 breast
[3] = tested on: 786-0 renal
[4] = tested on: MDA-MB-231 breast
[5] = tested on: LXFL 529 NSCLC
[6] = tested on: KM20L2 colon
[7] = tested on: SNB-78 CNS
[8] = tested on: DMS 273 small cell lung
[9] = tested on: M19-MEL melanoma
[10] = tested on: XF 498 CNS
[11] = tested on: HOP-18 NSCLC

SMILES	GI50 [1] [µM]	TGI [1] [µM]	GI50 [2] [nM]	TGI [2] [µM]	GI50 [3] [nM]	TGI [3] [µM]	GI50 [4] [nM]	TGI [4] [µM]	TGI [5] [µM]	TGI [6] [µM]	TGI [7] [µM]	TGI [8] [µM]	TGI [9] [µM]	TGI [10] [µM]	TGI [11] [µM]
COc1ccc(/C=C/c2c(C(=O)/C=C/c3ccccc3)c(C)nc3ccccc23)cc1	1.77	5.11	2000	5.18	1760	3.31	2430	7.87	–	–	–	–	–	–	–
CN1CCc2nc(N)nc(-c3nc(N)nc4c3CN(C)CC4)c2C1	–	> 100	–	> 100	–	> 100	–	> 100	–	–	–	–	–	–	–
Cc1cc(C(=O)Nc2ccc3cc(CN4CCOCC4)ccc3n2)c(C)n1-c1ccccc1	0.393	4.56	1170	5.84	4750	17.9	8090	51.8	–	–	–	–	–	–	–
COCC[C@H]1CCC/C=C/[C@@H]2C[C@H](O)C[C@H]2[C@H](O)/C=C/C(=O)O1	–	–	132	> 90.9	23.4	0.054	131	0.322	–	–	–	–	–	–	–
COc1cc(OC)c(C(=O)/C=C/c2cccc(C(F)(F)F)c2)c(OC)c1	1.61	9.43	1080	2.84	1660	5.59	1760	6.05	–	–	–	–	–	–	–
COc1ccc(C(=O)c2cc(C)c(OC)c(C)c2)cc1OC(=O)CCl	10.5	67.9	< 10	40.5	76.3	> 100	< 11.2	> 100	–	–	–	–	–	–	–
O=C1c2cccnc2-c2nc(-c3ccc(Cl)cc3)cc3c2c1nc1ccccc13	> 100	> 100	18000	51.1	12800	29.7	44100	> 100	–	–	–	–	–	–	–
CC(C)c1ccc(-c2cc(-c3cn[nH]c3-c3ccccn3)ccn2)cc1	6.96	> 23.7	10600	> 25	> 18800	> 25	> 16500	> 25	–	–	–	–	–	–	–
Cc1cc(C)c(NC(=O)c2sc3nc4c(cc3c2N)C(=O)CCC4)c(C)c1	5	> 63.5	7290	> 35.4	6850	> 100	7260	> 100	–	–	–	–	–	–	–
CCc1nc(N)nc(N)c1-c1ccc(NC)c([N+](=O)[O-])c1	–	> 100	–	> 100	–	> 100	–	> 100	–	–	–	–	–	–	–
CC1(C)C(=O)/C(=C\c2cccnc2)C[C@]2(C)[C@H]3CC[C@@H]4[C@H]5[C@H](C(=O)/C=C/c6cccnc6)CC[C@]5(C(=O)O)CC[C@@]4(C)[C@]3(C)CC[C@@H]12	3.75	24.6	1950	4.41	2360	5.41	–	–	–	–	–	–	–	–	–
OCC1OC(n2cnc3c2NC=NC[C@H]3O)C(Cl)C1O (some centres not stated)	–	> 100	–	> 100	–	> 100	–	> 100	–	–	–	–	–	–	–
C=CCCCCC/C=C\[C@@H](O)C#CC#C/C=C/CO	> 100	> 100	49900	> 100	> 100000	> 100	40000	> 100	–	–	–	–	–	–	–
O=C(Nc1n[nH]c2cc(-c3ccccc3)ccc12)C1CC1	17.8	> 25	15500	> 25	> 25000	> 25	14700	> 25	–	–	–	–	–	–	–
Cc1nnc(NS(=O)(=O)c2ccc(N=Nc3cc(N=Nc4ccc(S(=O)(=O)Nc5nnc(C)s5)cc4)c4c(NC(=O)C(Cl)Cl)cccc4c3OC(=O)C(Cl)Cl)cc2)s1 (tested in a mixture with another compound)	–	–	–	–	–	> 100	–	–	> 100	> 100	> 100	39.8	57.2	92.9	–
CC(C)c1c(O)c(O)c2c(c1O)C(=O)C(O)=C1C(C)(C)CCC[C@@]12C	–	16.5	–	13	–	13.8	–	7.29	–	–	–	–	–	–	–
Cc1cc2nc(C=C(C(F)(F)F)C(F)(F)F)oc2cc1C	–	8.53	–	6.13	–	3.38	–	5.42	–	–	–	–	–	–	–
[N-]=[N+]=C1C(=O)NN=C1c1ccccc1	–	–	–	–	–	> 100	–	–	> 100	> 100	–	> 100	> 100	> 100	–
COc1ccc(C(=O)c2cc(C)c(OC)c(C)c2)c(OC)c1O	5.95	> 100	27.2	> 62	667	> 100	58.7	> 100	–	–	–	–	–	–	–
COc1ccc2[nH]c3c4[nH]c5ccc(OC)cc5c4c4c(c3c2c1)C(=O)NC4=O	> 25	> 25	> 9400	> 25	> 12900	> 25	> 25000	> 25	–	–	–	–	–	–	–
Cc1[nH]c(=O)nc2[nH][nH]c(=O)c12	–	–	–	–	–	> 100	–	–	> 100	–	–	–	> 100	–	> 100
COc1c(C(=O)/C=C/c2ccccc2)c(O)cc2occc12	10.5	32.4	7720	27.8	16200	31.8	4380	17.5	–	–	–	–	–	–	–
COc1c2c(cc3c1OCO3)[C@]13C=C[C@H](OC)C[C@H]1N(C2)CC3O (some centres not stated)	–	> 100	–	> 100	–	> 100	–	> 100	–	–	–	–	–	–	–
COC(=O)Nc1nc2ccc(C3(c4ccc(F)cc4)OCCO3)cc2[nH]1	–	–	2770	> 100	687	> 100	598	99.5	–	–	–	–	–	–	–
Nc1ccccc1/C(O)=C1/CCOC1=O	–	–	–	–	–	> 100	–	–	> 100	–	> 100	–	> 100	> 100	–
CCCC(CCC)NCC(O)c1cc(-c2ccc(C(F)(F)F)cc2)nc(C(F)(F)F)c1 (configuration not stated)	1.7	3.3	–	–	1370	2.9	1530	3.17	–	–	–	–	–	–	–
NC(=O)c1cc(Cl)ccc1NC(=O)/C=C/c1ccccc1	4.8	> 100	4660	> 100	3860	> 34.8	2600	> 100	–	–	–	–	–	–	–
CC/C=C\C[C@H](O)C/C=C1/C(=O)C=C[C@@H]1C/C=C\CCCC(=O)OC	2.52	12.8	2150	6.07	1860	3.62	2940	9.23	–	–	–	–	–	–	–
